Measured values published in patent publication EP3046573B1, “AMYLIN ANALOGUES” (Zealand Pharma A/S, priority 2013, dated 2015).
Like-named read-outs stand apart in the source and are kept apart here. Numbered stars: 1 amine (or outer) side, 2 acyl side, 3 side chain; on linkers, the order of the positions; unused ones are H or OH. Bridge positions count the residues as written; N and C are the ends. Square brackets hold non-standard residues; d marks the D form. Peptide text beside a SMILES is read from it. * marks the point of attachment. C20 diacid = O=C(O)CCCCCCCCCCCCCCCCCCC(=O)*; γGlu = O=C(O)[C@H](CCC(=O)[*:2])N[*:1]; NMeI = CC[C@H](C)[C@H](NC)C(=O)O; Sar = CNCC(=O)O

Assays:
[1] = Solubility assessment (turbidity absorbance at 325 nm); type: physicochemical; details: stock 2 mg/ml diluted 1:1, ambient temperature (typically 25°C), n=1; for Solubility, Acetate buffer pH 4: 100 mM acetate buffer pH 4.0; for Solubility, Acetate buffer pH 5: 100 mM acetate buffer pH 5.0; for Solubility, Histidine buffer pH 6: 100 mM histidine buffer pH 6.0; for Solubility, Histidine buffer pH 7: 100 mM histidine buffer pH 7.0; for Solubility, Phosphate buffer pH 6: 100 mM phosphate buffer pH 6.0; for Solubility, Phosphate buffer pH 7: 100 mM phosphate buffer pH 7.0; for Solubility, Phosphate buffer pH 7.5: 100 mM phosphate buffer pH7.5
How it was run: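 Stock 2 mg/ml peptide, H2O/HCl pH 2.5; 1:1 into 100 mM buffers: acetate pH 4.0/5.0, His pH 6.0/7.0, phosphate pH 6.0/7.0/7.5. A280 + A325, ~25°C, n=1. Soluble ≥ 1 mg/ml if A325 ≤ 0.02.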

[2] = biological target: T1, human calcitonin receptor (hCTR2) (Homo sapiens, UniProt P30988); assay: hCTR2 assay: induction of cAMP (AlphaScreen cAMP Assay kit) in COS7 cells expressing hCTR2; type: cell-based
T1 construct: expressed in transfected cells
T1 sequence (P30988 25-474): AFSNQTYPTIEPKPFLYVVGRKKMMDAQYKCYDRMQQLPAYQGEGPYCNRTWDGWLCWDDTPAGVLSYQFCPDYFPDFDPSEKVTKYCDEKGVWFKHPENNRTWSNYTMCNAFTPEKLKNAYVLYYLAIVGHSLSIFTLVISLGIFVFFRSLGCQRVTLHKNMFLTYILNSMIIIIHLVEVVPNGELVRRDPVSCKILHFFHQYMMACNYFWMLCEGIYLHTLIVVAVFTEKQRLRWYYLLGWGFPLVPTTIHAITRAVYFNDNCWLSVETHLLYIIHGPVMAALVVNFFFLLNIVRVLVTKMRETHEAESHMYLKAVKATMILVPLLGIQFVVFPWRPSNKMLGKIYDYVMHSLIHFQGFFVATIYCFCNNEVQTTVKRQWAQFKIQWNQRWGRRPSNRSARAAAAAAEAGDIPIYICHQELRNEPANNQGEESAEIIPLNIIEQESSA
How it was run: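 Stable hCTR2 clone in RAMP-naive COS7 cells; peptides titrated in Tyrode buffer (pH 7.4) with 100 µM IBMX, 0.1% casein, 15 min at 37° C. cAMP read by AlphaScreen after lysis; EC50 and efficacy relative to pramlintide from 4PL fit.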

[3] = cAMP induction in COS7 cells expressing hCTR2, average of a minimum of 3 determinations, read-out: hCTR2 EC50

CC[C@H](C)[C@@H](C(=O)N[C@@H](CC(C)C)C(=O)N[C@@H](CO)C(=O)N[C@@H](CO)C(=O)N[C@H](C(=O)N[C@@H](CC(N)=O)C(=O)N[C@H](C(=O)NCC(=O)N[C@@H](CO)C(=O)N[C@@H](CC(N)=O)C(=O)N[C@H](C(=O)N1CCC[C@H]1C(N)=O)[C@@H](C)O)C(C)C)[C@@H](C)O)N(C)C(=O)CN(C)C(=O)[C@H](Cc1ccccc1)NC(=O)[C@H](CO)NC(=O)[C@H](CO)NC(=O)[C@H](Cc1c[nH]cn1)NC(=O)[C@H](Cc1c[nH]cn1)NC(=O)[C@H](CC(C)C)NC(=O)[C@H](Cc1ccccc1)NC(=O)[C@H](CCC(=O)O)NC(=O)[C@H](C)NC(=O)[C@H](CC(C)C)NC(=O)[C@H](CCCNC(=N)N)NC(=O)[C@H](CCC(N)=O)NC(=O)[C@@H](NC(=O)[C@H](C)NC(=O)[C@@H]1CSSC[C@H](NC(=O)[C@H](CCCNC(=N)N)NC(=O)CC[C@H](NC(=O)CCCCCCCCCCCCCCCCCCC(=O)O)C(=O)O)C(=O)N[C@@H](CC(N)=O)C(=O)N[C@@H]([C@@H](C)O)C(=O)N[C@@H](C)C(=O)N[C@@H]([C@@H](C)O)C(=O)N1)[C@@H](C)O [Compound 53, [19CD]-isoGlu-RC()NTATC()ATQRLAEFLHHSSF-Gly(Me)-Ile(Me)-LSSTNVGSNTP-NH2] ({C20 diacid-γGlu}-RCNTATCATQRLAEFLHHSSF[Sar][NMeI]LSSTNVGSNTP-NH2; disulfide 2-7)
Solubility, Acetate buffer pH 4 [1]: SS (SS indicates solubility ≥ 1mg/ml)
Solubility, Acetate buffer pH 5 [1]: SS (SS indicates solubility ≥ 1mg/ml)
Solubility, Histidine buffer pH 6 [1]: SS (SS indicates solubility ≥ 1mg/ml)
Solubility, Histidine buffer pH 7 [1]: SS (SS indicates solubility ≥ 1mg/ml)
Solubility, Phosphate buffer pH 6 [1]: SS (SS indicates solubility ≥ 1mg/ml)
Solubility, Phosphate buffer pH 7 [1]: SS (SS indicates solubility ≥ 1mg/ml)
Solubility, Phosphate buffer pH 7.5 [1]: SS (SS indicates solubility ≥ 1mg/ml)
EC50 [2, 3]: 0.12 nM

CC[C@H](C)[C@@H](C(=O)N[C@@H](CC(C)C)C(=O)N[C@@H](CO)C(=O)N[C@@H](CO)C(=O)N[C@H](C(=O)N[C@@H](CC(N)=O)C(=O)N[C@H](C(=O)NCC(=O)N[C@@H](CO)C(=O)N[C@@H](CC(N)=O)C(=O)N[C@H](C(=O)N1CCC[C@H]1C(N)=O)[C@@H](C)O)C(C)C)[C@@H](C)O)N(C)C(=O)[C@H](C)NC(=O)[C@H](Cc1ccccc1)NC(=O)[C@H](CC(N)=O)NC(=O)[C@H](CC(N)=O)NC(=O)[C@H](CO)NC(=O)[C@H](CO)NC(=O)[C@H](Cc1c[nH]cn1)NC(=O)[C@H](Cc1c[nH]cn1)NC(=O)[C@H](CC(C)C)NC(=O)[C@H](Cc1ccccc1)NC(=O)[C@H](CCC(=O)O)NC(=O)[C@H](C)NC(=O)[C@H](CC(C)C)NC(=O)[C@H](CCCNC(=N)N)NC(=O)[C@H](CCC(N)=O)NC(=O)[C@@H](NC(=O)[C@H](C)NC(=O)[C@@H]1CSSC[C@H](NC(=O)[C@H](CCCNC(=N)N)NC(=O)CC[C@H](NC(=O)CCCCCCCCCCCCCCCCCCC(=O)O)C(=O)O)C(=O)N[C@@H](CC(N)=O)C(=O)N[C@@H]([C@@H](C)O)C(=O)N[C@@H](C)C(=O)N[C@@H]([C@@H](C)O)C(=O)N1)[C@@H](C)O [Compound 49, [19CD]-isoGlu-RC()NTATC()ATQRLAEFLHHSSNNFA-Ile(Me)-LSSTNVGSNTP-NH2] ({C20 diacid-γGlu}-RCNTATCATQRLAEFLHHSSNNFA[NMeI]LSSTNVGSNTP-NH2; disulfide 2-7)
Solubility, Acetate buffer pH 4 [1]: II (II indicates solubility ≤ 1 mg/ml)
Solubility, Acetate buffer pH 5 [1]: II (II indicates solubility ≤ 1 mg/ml)
Solubility, Histidine buffer pH 6 [1]: II (II indicates solubility ≤ 1 mg/ml)
Solubility, Histidine buffer pH 7 [1]: II (II indicates solubility ≤ 1 mg/ml)
Solubility, Phosphate buffer pH 6 [1]: II (II indicates solubility ≤ 1 mg/ml)
Solubility, Phosphate buffer pH 7 [1]: II (II indicates solubility ≤ 1 mg/ml)
Solubility, Phosphate buffer pH 7.5 [1]: II (II indicates solubility ≤ 1 mg/ml)
EC50 [2, 3]: 0.14 nM

CC[C@H](C)[C@@H](C(=O)N[C@@H](CC(C)C)C(=O)N[C@@H](CO)C(=O)N[C@H](C(=O)N[C@@H](CC(N)=O)C(=O)N[C@H](C(=O)NCC(=O)N[C@@H](CO)C(=O)N[C@@H](CC(N)=O)C(=O)N[C@H](C(=O)N1CCC[C@H]1C(N)=O)[C@@H](C)O)C(C)C)[C@@H](C)O)N(C)C(=O)CN(C)C(=O)[C@H](Cc1ccccc1)NC(=O)[C@H](CC(N)=O)NC(=O)[C@H](CC(N)=O)NC(=O)[C@H](CO)NC(=O)[C@H](CO)NC(=O)[C@H](Cc1c[nH]cn1)NC(=O)[C@H](Cc1c[nH]cn1)NC(=O)[C@H](CC(C)C)NC(=O)[C@H](Cc1ccccc1)NC(=O)[C@H](CCC(=O)O)NC(=O)[C@H](C)NC(=O)[C@H](CC(C)C)NC(=O)[C@H](CCCNC(=N)N)NC(=O)[C@H](CCC(N)=O)NC(=O)[C@@H](NC(=O)[C@H](C)NC(=O)[C@@H]1CSSC[C@H](NC(=O)[C@H](CCCNC(=N)N)NC(=O)CC[C@H](NC(=O)CCCCCCCCCCCCCCCCCCC(=O)O)C(=O)O)C(=O)N[C@@H](CC(N)=O)C(=O)N[C@@H]([C@@H](C)O)C(=O)N[C@@H](C)C(=O)N[C@@H]([C@@H](C)O)C(=O)N1)[C@@H](C)O [Compound 26, [19CD]-isoGlu-RC()NTATC()ATQRLAEFLHHSSNNF-Gly(Me)-Ile(Me)-LSTNVGSNTP-NH2] ({C20 diacid-γGlu}-RCNTATCATQRLAEFLHHSSNNF[Sar][NMeI]LSTNVGSNTP-NH2; disulfide 2-7)
Solubility, Acetate buffer pH 4 [1]: SS (SS indicates solubility ≥ 1mg/ml)
Solubility, Acetate buffer pH 5 [1]: SS (SS indicates solubility ≥ 1mg/ml)
Solubility, Histidine buffer pH 6 [1]: SS (SS indicates solubility ≥ 1mg/ml)
Solubility, Histidine buffer pH 7 [1]: SS (SS indicates solubility ≥ 1mg/ml)
Solubility, Phosphate buffer pH 6 [1]: SS (SS indicates solubility ≥ 1mg/ml)
Solubility, Phosphate buffer pH 7 [1]: SS (SS indicates solubility ≥ 1mg/ml)
Solubility, Phosphate buffer pH 7.5 [1]: SS (SS indicates solubility ≥ 1mg/ml)
EC50 [2, 3]: 0.11 nM

CC[C@H](C)[C@@H](C(=O)N[C@@H](CO)C(=O)N[C@@H](CO)C(=O)N[C@H](C(=O)N[C@@H](CC(N)=O)C(=O)N[C@H](C(=O)NCC(=O)N[C@@H](CO)C(=O)N[C@@H](CC(N)=O)C(=O)N[C@H](C(=O)N1CCC[C@H]1C(N)=O)[C@@H](C)O)C(C)C)[C@@H](C)O)N(C)C(=O)[C@H](C)NC(=O)CN(C)C(=O)[C@H](Cc1ccccc1)NC(=O)[C@H](CC(N)=O)NC(=O)[C@H](CC(N)=O)NC(=O)[C@H](CO)NC(=O)[C@H](CO)NC(=O)[C@H](Cc1c[nH]cn1)NC(=O)[C@H](Cc1c[nH]cn1)NC(=O)[C@H](CC(C)C)NC(=O)[C@H](Cc1ccccc1)NC(=O)[C@H](CCC(=O)O)NC(=O)[C@H](C)NC(=O)[C@H](CC(C)C)NC(=O)[C@H](CCCNC(=N)N)NC(=O)[C@H](CCC(N)=O)NC(=O)[C@@H](NC(=O)[C@H](C)NC(=O)[C@@H]1CSSC[C@H](NC(=O)[C@H](CCCNC(=N)N)NC(=O)CC[C@H](NC(=O)CCCCCCCCCCCCCCCCCCC(=O)O)C(=O)O)C(=O)N[C@@H](CC(N)=O)C(=O)N[C@@H]([C@@H](C)O)C(=O)N[C@@H](C)C(=O)N[C@@H]([C@@H](C)O)C(=O)N1)[C@@H](C)O [Compound 54, [19CD]-isoGlu-RC()NTATC()ATQRLAEFLHHSSNNF-Gly(Me)-A-Ile(Me)-SSTNVGSNTP-NH2] ({C20 diacid-γGlu}-RCNTATCATQRLAEFLHHSSNNF[Sar]A[NMeI]SSTNVGSNTP-NH2; disulfide 2-7)
Solubility, Acetate buffer pH 4 [1]: SS (SS indicates solubility ≥ 1mg/ml)
Solubility, Acetate buffer pH 5 [1]: SS (SS indicates solubility ≥ 1mg/ml)
Solubility, Histidine buffer pH 6 [1]: SS (SS indicates solubility ≥ 1mg/ml)
Solubility, Histidine buffer pH 7 [1]: SS (SS indicates solubility ≥ 1mg/ml)
Solubility, Phosphate buffer pH 6 [1]: SS (SS indicates solubility ≥ 1mg/ml)
Solubility, Phosphate buffer pH 7 [1]: SS (SS indicates solubility ≥ 1mg/ml)
Solubility, Phosphate buffer pH 7.5 [1]: SS (SS indicates solubility ≥ 1mg/ml)
EC50 [2]: 0.091 nM
